{"source": "patent US11850257B2", "about": "“Method for enhancing beta-adrenergic response” (Saganatura EHF., priority 2019, dated 2023)", "key": {"[1]": {"system": "β-adrenergic receptors in porcine detrusors", "test": "Contraction of potassium-contracted pig detrusor muscle strips in organ baths, relaxation by adrenaline and desensitization", "excerpt": "Bladders were obtained from freshly slaughtered pigs and placed in cold Krebs solution (composition, mM: sodium chloride 119, potassium chloride 4.6, sodium bicarbonate 15, calcium chloride 1.5, magnesium chloride 1.2, sodium dihydrogen phosphate 1.2, glucose was 1.98 g/L) which had been gassed by 5% CO2 and put on ice. Subsequently four adjacent strips were cut from the detrusor (typically 2 mm wide and 20 mm long). In each case, four strips were cut, one of which served as a control. The tissues were mounted in a 100-mL organ bath containing sodium Krebs solution, which was maintained at 37° C. and continuously gassed with 95% O2 and 5% CO2. The strips were placed under a tension of ≈1 g and allowed to equilibrate for 60 minutes, during which the bath was changed three times. The muscle contraction was recorded by a transducer. The muscle strips were then contracted by addition of potassium up to 50 mM and allowed to equilibrate.\nAbout 40 minutes after addition of potassium, cnidimoside A was given to the organ baths. Cnidimoside A was isolated from Angelica archangelica leaf by boiling the dried leaf in water, extracting the water phase by ethyl acetate and subjecting the resulting organic phase to silica acid chromatography column. Cnidimoside A is eluted by 10% methanol in chloroform after washing the column with ethyl acetate and chloroform. The cnidimoside A rich fractions were recrystallized in methanol.\nThe muscle strip in the fourth organ bath (D in FIG. 1) received the same amount of DMSO but no cnidimoside A. About 20 and 30 minutes later (see FIG. 1, times 9 and 10) adrenaline was added to all organ baths, resulting in 0.4 (time 9) and 1.2 μM (time 10) final concentration, respectively.\nAbout 75 minutes after addition of potassium, cnidimoside A dissolved in DMSO was added to three organ baths (E-G, time-10 in FIG. 2), the fourth receiving the same amount of DMSO (bottom graph (H) in FIG. 2). Fifteen minutes after the addition of cnidimoside A, adrenaline was added to all baths, to a final concentration of 2 μM (time 11 in FIG. 2). In the absence of cnidimoside A the muscle strip relaxed for about 15 minutes, but then started contracting again, reaching the same level of contraction about 50 minutes after the addition of adrenaline."}, "mice [2]": {"system": "mice", "test": "Mouse toxicity experiment, Angelica archangelica water-extract mixed in food for 6 months", "type": "in vivo", "details": "daily consumption of cnidimoside A 3.35 mg/kg (calculated from extract content 0.15%)", "description": "In a mouse experiment, we fed mice with about […] Angelica archangelica water-extract (mixed in food) daily for 6 months. Assuming the mice to be on average 23 g and cnidimoside A content in the extract to be 0.15%, this means that the daily consumption of cnidimoside A was 3.35 mg/kg."}, "Water solubility": {"test": "Water solubility", "type": "physicochemical"}, "mice [3]": {"system": "mice", "details": "100 mg/kg daily, 30 days; cited from earlier work"}}}
{"smiles": "C/C(=C/Cc1c(O)cc2oc(C)cc(=O)c2c1O)CO[C@@H]1O[C@H](CO)[C@@H](O)[C@H](O)[C@H]1O", "note": "[cnidimoside A, 5,7-dihydroxy-2-methyl-6-[(Z)-3-methyl-4-[(2R,3R,4S,5S,6R)-3,4,5-trihydroxy-6-(hydroxymethyl)oxan-2-yl]oxybut-2-enyl]chromen-4-one]", "values": [{"measurement": "Desensitization of the relaxation response to adrenaline", "setting": "[1]; 13 μM cnidimoside A (bath C), adrenaline 0.4 and 1.2 μM, Experiment I", "value": "occurred slowly"}, {"measurement": "Desensitization of the relaxation response to adrenaline", "setting": "[1]; 38 μM cnidimoside A (bath B), adrenaline 0.4 and 1.2 μM, Experiment I", "value": "not observed at all"}, {"measurement": "Desensitization of the relaxation response to adrenaline", "setting": "[1]; 112 μM cnidimoside A (bath A), adrenaline 0.4 and 1.2 μM, Experiment I", "value": "not observed at all"}, {"measurement": "Desensitization of the relaxation response to adrenaline", "setting": "[1]; 200 μM cnidimoside A, adrenaline 2 μM, Experiment II", "value": "occurs much slower"}, {"measurement": "Repression of desensitization across doses", "setting": "[1]; 13, 38 and 112 μM cnidimoside A vs DMSO control, Experiment I", "value": "repressed dose-dependently"}, {"measurement": "Toxic effect", "setting": "mice [2]", "value": "No toxic effect"}, {"measurement": "Water solubility", "setting": "Water solubility", "value": "highly water soluble"}, {"measurement": "Effect on the weight of body, liver, spleen or thymus", "setting": "mice [3]", "value": "without affecting"}]}
